Key:
[1] = system: P. aeruginosa PAO-infected murine lung sections; experiment: CLSM of lung sections of infected and uninfected mice; assay type: in vivo; details: after i.v. injection
Protocol: For more detailed insights into the localization of divalent LecA ligand 21 and the control Sulfo-Cyanine7, lung sections of infected and uninfected mice were prepared and analyzed by CLSM. […] Signals corresponding to 21 were localized in cellular accumulations around medium-sized blood vessels. Particle-shaped signals and signals clustered into larger dots were observed. […] Possibly, signals detected in lung sections stained with a divalent LecA imaging probe are due to complexes of membrane-bound LecA with 21. These particle-shaped complexes probably represent the divalent imaging probe 21 bound to bacterial cells. Additionally, it is possible that larger dots are attributed to accumulated bacteria in phagocytes such as neutrophils, monocytes, and dendritic cells. However, intracellular detection using the divalent LecA imaging probe 21 has not yet been analyzed and requires further experiments.
Figure 7 Confocal laser scanning microscopy analysis of P. aeruginosa PAO-infected murine lung sections using divalent LecA imaging probe 21. Sections of cryopreserved murine lungs infected with P. aeruginosa were prepared and analyzed by CLSM after intravenous injection of divalent LecA imaging probe 21 (A) or the control Sulfo-Cyanine7 free acid (B). Lung sections of uninfected animals were used as a control after i.v. injection of 21 (C) or control Sulfo-Cyanine7 free acid (D). Cell nuclei are shown in red (DAPI) and green signals correspond to 21 or Sulfo-Cyanine7 free acid, respectively. Green signals were detected only in infected lung sections after injection of divalent LecA ligand 21. Signals were located in cellular accumulations around medium-sized blood vessels. Scale bar for A and B = 100 μm and for C and D = […]. […]
Lung sections and ex vivo imaging of P. aeruginosa
Sections of 8 µm were made from the frozen lung lobes using a cryostat (Leica, Germany). The sections were mounted on adhesive slides, dried overnight at room temperature and mounted with a DAPI containing gel. Confocal imaging was performed on a Leica SP8 […]
system equipped with a super -continuum white light laser (WLL) and a multi - photon laser source (MP) through a water immersion objective (Leica HC FLUOTAR L 25x/1,0 with a motorized correction ring). Images (1024x1024 pixels) were acquired using the MP excitation of 720 nm and emission band ([…]) for detecting DAPI and the WLL at 730 nm excitation with an emission band 748 nm – 848 nm for Cyanine7 employing non-descanned or descanned HyD detectors, respectively. Further image analysis and image overlay was performed in ImageJ2 software.27 […]

LecB (PAO1) = biological target: T1, LecB (PAO1) (Pseudomonas aeruginosa, UniProt Q9HYN5); experiment: Direct binding assay based on fluorescence polarization, titration with LecB
T1 construct: made in house
Protocol: Averages and standard deviations were determined from at least three independent titrations of technical triplicates each.
(§1) Direct binding affinity determination of LecA and LecB imaging probes was performed with direct titration of protein and imaging probes in TBS/Ca2+ buffer. Protein dilution series was prepared in 96 well plates and 10 µL of each dilution in triplicates were mixed with 10 µL of fluorescent compound (20 nM) in 384-well microtiter plates (Greiner Bio-One, Germany, cat no 781900). The plates were centrifuged (1 min, 500 g), sealed and incubated for 2 h in dark wet chamber under gentle shaking. Fluorescence was measured on a PheraStar FS plate reader (BMG Labtech GmbH, Germany) with excitation filters at 485 nm and emission filters at 535 nm. The data were analysed with MARS Data Analysis Software (BMG Labtech GmbH, Germany) to calculate Kd values.

[2] = system: P. aeruginosa PAO1 biofilm aggregates; experiment: In vitro biofilm staining under static conditions (CLSM); assay type: cell-based, Pseudomonas aeruginosa; details: 10 μM probe
Protocol: The ability of LecA- and LecB-targeting probes to image P. aeruginosa biofilms was evaluated in vitro. P. aeruginosa PAO1, constitutively expressing mCherry from plasmid pMP7605,[56] was cultivated in microtiter plates under shaking conditions to form biofilm aggregates, as reported previously.[43] Fluorescein-carbohydrate conjugates were added to the bacterial culture to reach a final concentration of 10 μM and biofilms were analyzed by confocal laser scanning microscopy (CLSM) under static conditions (Figures 2 and S4). […] To our surprise, the intended negative control xyloside 8 also stained the P. aeruginosa biofilms (Figures 2C and S4). In all cases, the green signal originating from the fluorescein conjugates was not homogeneously spread over the entire structure of the biofilm aggregates, but a certain heterogeneity was observed across biofilm regions as bright spots. Further, the intensity of staining varied between replicates (see the Supporting Information for individual experiments). […] Instead, only a very faint green shadow was detected for 9 indicating its suitability as a negative control. Thus, the observed biofilm staining with imaging probes 2, 3, 6, 7 and also xyloside 8 was carbohydrate dependent and while 2, 3 and 6, 7 are ligands of LecA and LecB, respectively, the molecular mechanism of xyloside 8 remains elusive.
One representative image of stained aggregates is shown. […] Scale bar = 50 μm.
P. aeruginosa PAO1 expressing the red fluorescent protein mCherry (pMP7605)23 was selected for this study. For this, P. aeruginosa PAO1 (DSM 19880, Braunschweig, Germany) was transformed with the mCherry plasmid (pMP7605).23 Bacteria were stored at -80 °C. For experimental use, bacteria were streaked on lysogeny broth (LB) agar (1% tryptone, 1% NaCl, 0,5% yeast extract, 1.3% agar) containing 60 µg/mL gentamicin (Gm) and incubated at 37 °C overnight. For liquid cultures, bacterial colonies were transferred from LB agar to 10 mL LB (1% tryptone, 1% NaCl, 0,5% yeast extract) containing 60 µg/mL Gm and incubated at 37 °C and 180 rpm overnight. For exponential growth, 10 mL of LB containing 60 µg/mL Gm were inoculated with P. aeruginosa PAO1 mCherry (pMP7605)23 using an overnight liquid culture […]
In vitro biofilm staining under static conditions
Biofilm staining experiments were performed in analogy to Wagner et al. with P. aeruginosa PAO1 pMP7605 (Figure S4).23,24 Bacterial overnight cultures were inoculated from single colonies in 5 mL LB supplemented with gentamicin (120 µg/mL) and grown at 37 °C and 180 rpm. The bacterial overnight cultures were then diluted to OD600 of 0.02 with LB and 500 µL of culture per well were transferred to 24-well plate (24CG, Art. No. 5231 or 24FC, Art. No. 3231). The biofilm was grown under shaking conditions (180 rpm) at 37 °C for 20–24 h. Biofilm aggregates were visualized using a confocal laser scanning microscope (Leica TCS Sp8 CLSM) using a 25× numerical-aperture water objective. Z-stacks (463 x 463 μm) were recorded every 2 μm for mCherry (ex.: 561 nm, red) and for fluorescein containing imaging compounds (ex.: 488 nm, green). […]
Maximum Intensity Projections (contrast range automatically adjusted by Imaris). Only one staining experiment was carried out for imaging probes 4 and S26, all other fluorescein conjugates were analyzed in at least three independent experiments.

LecA = biological target: T2, LecA (Pseudomonas aeruginosa, UniProt Q05097); experiment: Direct binding assay based on fluorescence polarization, titration with LecA; details: negative controls
T2 construct: made in house
Protocol: The binding affinities of imaging probes 2–4 for LecA were determined using a direct binding assay based on fluorescence polarization (FP).[47]
(A, C) Monovalent LecA imaging probes 2–4 based on phenyl β-D-galactoside (1) were titrated with LecA. […] (E) Xyloside-fluorescein conjugate (8) and azido fluorescein (9) served as negative controls in titrations with LecA and LecB, respectively. Averages and standard deviations were determined from at least three independent titrations of technical triplicates each.
as §1

[3] = system: P. aeruginosa PAO (DSM 1707) lung infection; experiment: Optical in vivo imaging and ex situ organ analysis in acute P. aeruginosa airway infection model; design: species or system mice
Protocol: Encouraged by the high affinity of the imaging probes and their ability to stain P. aeruginosa biofilms in vitro, we further investigated the compounds in vivo using an acute P. aeruginosa airway infection model in mice. Intratracheal administration of P. aeruginosa PAO (DSM 1707) results in a local infection that is mainly restricted to the lungs. With the infection dose of 2 × 10^6 cfu/50 μL chosen here, the number of bacteria peaks at 6 h after infection before the host immune system clears the bacteria.[70]
Then, imaging probes, divalent LecA-targeting probe 21, LecB-targeting probe 22 and the control sulfo-Cy7 (free acid), were administered intravenously to the tail vein 2 h post infection. […] This accumulation in the lungs was then confirmed by a subsequent ex vivo analysis of the organs.
Figure 6 Optical in vivo imaging in mice and ex situ analysis of organs with P. aeruginosa PAO acute lung infection. In vivo imaging of mice with P. aeruginosa intratracheal infection (right) or uninfected control mice (left) after intravenous administration of imaging probes 2 h post infection: (A) 50 nmol/20 g divalent LecA probe 21 or (B) 100 nmol/20 g LecB probe 22. Then, explanted lungs were analyzed for fluorescence intensity, shown as a false color scale in (C) divalent LecA probe 21 (left: uninfected, right: infected) and (D) LecB probe 22 (left: uninfected; middle: uninfected control without dye; right: infected). (E) Quantification of the average radiant efficiency of the divalent LecA ligand 21 and the control sulfo-Cy7 free acid in the lungs of uninfected and infected mice. Duplicate data points and the mean are depicted. (F) Average radiant efficiency was quantified for the LecB imaging probe 22 in lungs of infected and uninfected mice. In addition, (G) further mouse organs were explanted after i.v. injection of 21 (50 nmol/20 g) or control sulfo-Cy7 free acid (50 nmol/20 g) and imaged. Organs of uninfected (left), infected (right) mice, and uninfected mice without any dye (upper middle on the sulfo-Cy7 free acid rows) were compared. Fluorescence intensities are shown as false color pictures. […]
Lung infection model and in vivo imaging of P. aeruginosa
C57BL/6J and albino (Tyrc2J) C57BL/6 mice were bred and housed at the Central Animal Facility, Hannover Medical School, Germany. Animal experiments were performed with permission number: 33.9-42502-04-16/2072 from the Lower Saxony State Office for Consumer Protection and Food Safety (LAVES), Germany. Mice were anesthetized with 3% isoflurane (CP Pharma) and infected intratracheally with 2x10^6 cfu/50 µL of P. aeruginosa PAO (DSM1707, Braunschweig, Germany) as described previously.26
50 – 100 nmol sulfo-Cyanine7-compound (divalent LecA probe 21; LecB probe 22; control sulfoCy7 free acid, CAS no.: 2104632-30-4, Lumiprobe; control sulfoCy7 azide, 20, Lumiprobe) per 20 g mouse was injected intravenously 2 h after infection. Optical imaging was performed 4 – 7 h after compound administration. Mice were anesthetized with 3% isoflurane […]
an in vivo imaging system (IVIS SpectrumCT, PerkinElmer). Subsequently mice were euthanized and organs were imaged (675/760 nm) ex situ individually. To enhance Cyanine7 specific fluorescent signal spectral unmixing was performed on in vivo images using LivingImage 4.7 (PerkinElmer). […]

T1 sequence (Q9HYN5 entry or part of it): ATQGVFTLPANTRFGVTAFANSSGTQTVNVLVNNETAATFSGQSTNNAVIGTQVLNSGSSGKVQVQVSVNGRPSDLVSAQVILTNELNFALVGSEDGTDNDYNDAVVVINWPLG
T2 sequence (Q05097 whole entry): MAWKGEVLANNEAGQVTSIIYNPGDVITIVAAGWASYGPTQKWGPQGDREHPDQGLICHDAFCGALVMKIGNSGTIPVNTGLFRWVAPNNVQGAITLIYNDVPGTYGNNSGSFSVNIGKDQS

Compound | Cyanine7 signals in lung sections, infected mice [1] | Cyanine7 signals in lung sections, uninfected mice [1] | Kd (LecB (PAO1)) | Staining of biofilm aggregates [2] | further results
C[N+]1=C(C=CC2=CC(=CC=C3N(CCCCCC(=O)O)c4ccc(S(=O)(=O)[O-])cc4C3(C)C)CCC2)C(C)(C)c2cc(S(=O)(=O)[O-])ccc21.[Na+] [Sulfo-Cyanine7, reference compound] | no signals were detected | no signals were detected |  |  | 
C[C@@H]1O[C@H](CNS(=O)(=O)c2ccc(-c3cn(CCOCCOCCOCCNC(=S)Nc4ccc5c(c4)C(=O)OC54c5ccc(O)cc5Oc5cc(O)ccc54)nn3)s2)[C@@H](O)[C@H](O)[C@@H]1O [compound 6] |  |  | 1650 ± 140 nM | accumulated at the biofilm aggregates, although with weaker staining | 
C[C@@H]1O[C@H](CNS(=O)(=O)c2ccc(OCc3cn(CCOCCOCCOCCNC(=S)Nc4ccc5c(c4)C(=O)OC54c5ccc(O)cc5Oc5cc(O)ccc54)nn3)cc2)[C@@H](O)[C@H](O)[C@@H]1O [compound 7] |  |  | 840 ± 110 nM | accumulated at the biofilm aggregates, although with weaker staining | 
O=C1OC2(c3ccc(O)cc3Oc3cc(O)ccc32)c2ccc(NC(=S)NCCOCCOCCOCCn3cc(CNc4ccc(S[C@@H]5OC[C@@H](O)[C@H](O)[C@H]5O)cc4)nn3)cc21 [compound 8] |  |  |  | also stained | Binding to LecA in direct FP titration (LecA): inability to bind; Binding to LecB in direct FP titration (LecB (PAO1); negative control): inability to bind
CN1/C(=C/C=C2C=C(/C=C/C3=[N+](CCCCCC(=O)NCCCn4cc(CCN(Cc5ccc(NC(=O)CCc6ccc(O[C@@H]7O[C@H](CO)[C@H](O)[C@H](O)[C@H]7O)cc6)cc5)Cc5ccc(NC(=O)CCc6ccc(O[C@@H]7O[C@H](CO)[C@H](O)[C@H](O)[C@H]7O)cc6)cc5)nn4)c4ccc(S(=O)(=O)[O-])cc4C3(C)C)CCC/2)C(C)(C)c2cc(S(=O)(=O)O)ccc21 [compound 21] | Cyanine7 signals were exemplarily visible | no signals were detected |  |  | Average fluorescence radiant efficiency of explanted lungs ([3]; ex vivo analysis of organs, infected vs uninfected mice): elevated compared with uninfected mice; Cyanine7 signal in lung area, optical in vivo imaging ([3]; i.v. 2 h post infection, infected vs uninfected mice, 21 50 nmol/20 g, 22 100 nmol/20 g): elevated Cyanine7 signals in the area of the lung of infected mice compared to uninfected mice; Fluorescence ex vivo in kidneys ([3]; infected vs uninfected animals): moderately increased signals compared to uninfected animals; Fluorescence ex vivo in lungs of uninfected animals compared to control sulfo-Cyanine7 (free acid) ([3]; uninfected mice, ex vivo quantification): a certain accumulation in the lungs of uninfected animals
